# Assay results as given in US20250289810A1, “Compounds As NLRP3 Inflammasome Inhibitors And Their Use As Medicaments” (MAM-AGE S.R.L., priority 2022, published 2025).
# Entries after “also recorded” stand apart in the source; their conditions may differ.
# How the values were obtained:
# B16-F10 cells = assay: Transwell co-culture of peritoneal macrophages and B16-F10 cells (tumor microenvironment); assay type: cell-based; conditions: macrophages: LPS 1 μg/mL 2 hours, compound 1 μM 30 minutes, ATP 1 hour; 48 h
# Description: (§1) Co-culture of peritoneal macrophages and B16-F10 cells were performed using Transwell chambers with 0.4-μm pores on the membranes (Corning, Corning, NY, USA). Peritoneal macrophages and B16-F10 cells were cultured in the lower and upper compartments of the Transwell chamber, respectively, for 48 h. Peritoneal macrophages were seeded at a density of 2×10^5 cells and treated with LPS (1 μg/mL) for 2 hours, then DMSO or compound 4 (1 μM) of Formula (II) for 30 minutes and finally stimulated with ATP for 1 hour. B16-F10 cells were seeded at a density of 2×10^3 cells each well.
# as §1, with “compounds of Formula (III)” for “compound 4”, “μM)” for “μM) of Formula (II)”
# B16-F10 melanoma cells = assay: B16-F10 cancer cell proliferation (crystal violet growth curve); assay type: cell-based; conditions: 1 μM, 5 days
# Description: B16-F10 cells were treated with selected inhibitors (1 μM) then were counted with a Burker chamber and plated in five sets of 4 wells of a 24-well plate. Starting from the following day (day 1) 1 set of wells (at days 2, 3, 4 and 5) was washed once with PBS, fixed in 4% formaldehyde solution for 15 min at room temperature, and then kept in PBS at 4° C. At day 5, all the wells were stained with crystal violet for 20 minutes, lysed with 10% acetic acid, then the absorbance was read at 595 nm.
# THP-1 cells = assay: RealTime-Glo MT Cell Viability assay on THP-1 cells; assay type: cell-based, human; conditions: 1 μM, 48 hours
# Description: (§2) Cell viability was evaluated on THP-1 cells using realtime-Glo” MT Cell Viability Assay (Promega Italia, MI). Briefly, the cells were seeded in a 96 multiwell (10×10^4 cells/well), treated with the selected compound of Formula (II), and incubated for 48 hours. After treatment, the cells were incubated for 10 minutes in the incubator with the realtime-Glo” reagent following protocol. The luminescence was measured every 12 hours in the Glomax Multi Detection System Promega. The luminescence signal correlates with the number of metabolically active cells.
# as §2, with “compound,” for “compound of Formula (II),”, “cells. The results represent the mean luminescence values (RLU)±SEM.” for “cells.”
# AIM2 inflammasome = molecular target: T1, AIM2 inflammasome (Mus musculus, UniProt Q91VJ1); assay: AIM2 inflammasome activation in BMDM transfected with Poly(dA:dT) (IL-1β secretion); assay type: cell-based
# T1 construct: non-NLR AIM2 inflammasome by transfecting BMDM with the dsDNS analogue Poly (dA:dT); endogenous in cells; host or cells: mouse BMDM transfected with poly(dA:dT)
# T1 sequence (Q91VJ1 1-354): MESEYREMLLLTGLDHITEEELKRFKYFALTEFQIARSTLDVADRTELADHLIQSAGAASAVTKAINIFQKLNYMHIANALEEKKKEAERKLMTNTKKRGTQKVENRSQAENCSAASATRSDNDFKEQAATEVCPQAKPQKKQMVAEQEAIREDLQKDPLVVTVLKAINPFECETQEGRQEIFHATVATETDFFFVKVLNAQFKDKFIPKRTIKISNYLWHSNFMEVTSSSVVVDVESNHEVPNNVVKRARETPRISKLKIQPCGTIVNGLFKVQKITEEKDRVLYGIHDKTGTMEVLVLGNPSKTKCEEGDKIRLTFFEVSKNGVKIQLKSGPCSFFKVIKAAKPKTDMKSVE
# Description: (§3) The selectivity of compound 4 as an inhibitor of NLRP3 was then evaluated with respect to NLRC4 and absent in melanoma 2 (AIM2) inflammasomes. For activation of NLRC4 inflammasome, BMDM were treated with LPS (100 ng/ml) for 3 hours. Subsequently, the culture medium was removed and replaced with a serum-free medium containing compound 4 (1 μm for 30 minutes), finally the cells were transfected with flagellin (100 ng/ml) by S. typhimurium for 2 hours. The supernatant was tested by ELISA. […] The effect of the same compounds was examined on the non-NLR AIM2 inflammasome by transfecting BMDM with the dsDNS analogue Poly (dA:dT).
# NLRC4 inflammasome = molecular target: T2, NLRC4 inflammasome (Mus musculus, UniProt Q3UP24); assay: NLRC4 inflammasome activation in LPS-primed BMDM transfected with flagellin of S. typhimurium (IL-1β ELISA); assay type: cell-based; conditions: LPS 100 ng/ml 3 hours, compound 1 μm 30 minutes, flagellin 100 ng/ml 2 hours
# T2 construct: endogenous in cells; host or cells: mouse BMDM, LPS-primed, transfected with S. typhimurium flagellin
# Description: as §3
# The selectivity of compounds 6c and 10 of Formula (III) as inhibitors of NLRP3 was then evaluated with respect to NLRC4 inflammasome. For activation of NLRC4 inflammasome, BMDM were treated with LPS (100 ng/ml) for 3 hours. Subsequently the culture medium was removed and replaced with a serum-free medium containing […] (1 μm for 30 minutes), finally the cells were transfected with flagellin (100 ng/ml) by S. typhimurium for 2 hours. The supernatant was tested by ELISA.
# [1] = test system: B16-F10cytLUC melanoma cells; assay: Tumor growth of B16-F10cytLUC melanoma cells inoculated subcutaneously in C57BL/6 mice; assay type: in vivo; conditions: 25 mg/Kg intraperitoneal thrice weekly
# Description: A total of 1×10^6 B16-F10 melanoma cells transfected with cytluc (B16-F10cytLUC) were subcutaneously inoculated into females, 6- to 8-week-old C57BL/6 mice. Tumor growth was monitored daily, and tumor volumes were measured every other day with calipers using the following equation: Volume=π/6×(a×b2), where “a” is the major diameter and “b” is the minor diameter. As soon as the mass was palpable, mice were randomly divided (5 mice per group) into the treatment groups and the control group, with 5 mice per group. For NLRP3 inflammasome inhibition, mice were intraperitoneal injected with selected molecules thrice weekly at 25 mg/Kg; control mice received equal volumes of DMSO.
# Luciferase luminescence was followed by a total body luminometer (IVIS Lumina, Caliper-PerkinElmer).
# [2] = clinical development, phase II; cited from earlier work
# [3] = preclinical studies; cited from earlier work
# [4] = test system: pancreatic adenocarcinoma; conditions: cited from earlier work
# [5] = test system: head and neck squamous cell carcinoma; conditions: head and neck squamous cell carcinoma mouse model; cited from earlier work
# chronic myeloid leukemia = conditions: cited from earlier work
# T2 sequence (Q3UP24 whole entry): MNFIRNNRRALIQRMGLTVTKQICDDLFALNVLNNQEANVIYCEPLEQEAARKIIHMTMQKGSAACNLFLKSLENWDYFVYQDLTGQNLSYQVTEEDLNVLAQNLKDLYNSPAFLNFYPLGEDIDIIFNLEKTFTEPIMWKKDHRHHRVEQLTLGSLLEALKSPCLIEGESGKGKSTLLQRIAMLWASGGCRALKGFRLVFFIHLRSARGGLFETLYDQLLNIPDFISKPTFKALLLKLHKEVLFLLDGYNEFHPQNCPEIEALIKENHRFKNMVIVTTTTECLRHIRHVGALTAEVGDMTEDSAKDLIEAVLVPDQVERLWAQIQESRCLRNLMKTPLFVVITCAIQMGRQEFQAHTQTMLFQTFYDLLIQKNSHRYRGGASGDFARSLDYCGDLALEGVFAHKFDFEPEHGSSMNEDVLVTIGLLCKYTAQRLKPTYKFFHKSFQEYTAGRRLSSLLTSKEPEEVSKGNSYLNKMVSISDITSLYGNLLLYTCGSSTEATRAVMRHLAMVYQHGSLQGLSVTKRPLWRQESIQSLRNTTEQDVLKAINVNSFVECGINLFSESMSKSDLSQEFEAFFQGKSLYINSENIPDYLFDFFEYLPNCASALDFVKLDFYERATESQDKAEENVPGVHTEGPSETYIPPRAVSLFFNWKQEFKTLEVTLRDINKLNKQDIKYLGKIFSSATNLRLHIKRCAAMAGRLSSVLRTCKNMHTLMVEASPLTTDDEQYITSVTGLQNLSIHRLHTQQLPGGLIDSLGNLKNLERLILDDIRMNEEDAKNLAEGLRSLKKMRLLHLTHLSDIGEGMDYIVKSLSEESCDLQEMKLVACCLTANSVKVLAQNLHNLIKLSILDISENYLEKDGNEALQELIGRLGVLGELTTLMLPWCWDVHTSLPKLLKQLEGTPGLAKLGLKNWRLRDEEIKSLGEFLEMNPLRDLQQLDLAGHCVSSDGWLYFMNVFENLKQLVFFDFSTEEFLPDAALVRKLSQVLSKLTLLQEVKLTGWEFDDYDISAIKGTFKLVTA
smiles,measurement,setting,value
"Nc1ccc(S(=O)(=O)N2Cc3ccccc3C[C@H]2C(=O)Nc2c3c(cc4c2CCC4)CCC3)cc1 [Compound 4 of Formula (II), (S)-2-((4-aminophenyl)sulfonyl)-N-(1,2,3,5,6,7-hexahydro-s-indacen-4-yl)-1,2,3,4-tetrahydroisoquinoline-3-carboxamide]",Growth of B16-F10 cells co-cultured with treated peritoneal macrophages,B16-F10 cells,treated with the vehicle alone grew more than B16-F10 cells in contact with peritoneal macrophages treated with compound 4
same,Direct effect on cell proliferation of B16-F10 melanoma cells,B16-F10 melanoma cells,no direct effect
same,Cytotoxicity / cell viability of THP-1 cells,THP-1 cells,no cytotoxicity
same,IL-1β secretion on AIM2 inflammasome activation,AIM2 inflammasome,A reduction in the amount of IL-1β secretion was not observe
same,Effect on activation of NLRC4 inflammasome triggered by flagellin S. typhimurium,NLRC4 inflammasome,no effect
same,Reduction of tumor mass vs vehicle (DMSO),[1],about 50%
"CC(C)[C@H](NS(=O)(=O)c1ccc([N+](=O)[O-])cc1)C(=O)Nc1c2c(cc3c1CCC3)CCC2 [Compound 6c of Formula (III), (S)—N-(1,2,3,5,6,7-hexahydro-s-indacen-4-yl)-3-methyl-2-((4-nitrophenyl)sulfonamido)butanamide]",Cytotoxicity / cell viability of THP-1 cells,THP-1 cells,no cytotoxicity
same,Effect on activation of NLRC4 inflammasome triggered by flagellin S. typhimurium,NLRC4 inflammasome,no effect
"Nc1ccc(S(=O)(=O)N[C@@H](Cc2ccc(O)cc2)C(=O)Nc2c3c(cc4c2CCC4)CCC3)cc1 [Compound 10 of Formula (III), (S)-2-((4-aminophenyl)sulfonamido)-N-(1,2,3,5,6,7-hexahydro-s-indacen-4-yl)-3-(4-hydroxyphenyl)propanamide]",Cytotoxicity / cell viability of THP-1 cells,THP-1 cells,no cytotoxicity
same,Effect on activation of NLRC4 inflammasome triggered by flagellin S. typhimurium,NLRC4 inflammasome,no effect
"CC(C)(O)c1coc(S(=O)(=O)NC(=O)Nc2c3c(cc4c2CCC4)CCC3)c1 [MCC950, N-((1,2,3,5,6,7-hexahydro-s-indacen-4-yl)carbamoyl)-4-(2-hydroxypropan-2-yl)furan-2-sulfonamide]",Serum liver enzyme levels / hepatotoxicity,[2],hepatotoxicity problems; also recorded: elevation of serum liver enzyme levels
same,Oral bioavailability,[3],good oral bioavailability
same,Cell proliferation,[4],suppress cell proliferation
same,Tumor growth,[5],delay tumor growth
same,Cell proliferation,chronic myeloid leukemia,suppress cell proliferation
